Assay: xn = mol fraction of the nth substance listed, in the solute-free solvent

CCCCN1CCCCC1C(=O)Nc1c(C)cccc1C.Cl.O (stereo not drawn) + CCO + O
solubility (g/100 g solution)
Conditions | 293.15 K | 298.15 K | 303.15 K | 308.15 K | 313.15 K | 318.15 K | 323.15 K | 328.15 K | 333.15 K
x2 = 0.1 | 3.04 | 3.34 | 4.11 | 4.86 | 5.9 | 7.35 | 9.3 | 11.2 | 12.9
x2 = 0.2 | 3.1 | 3.37 | 4.04 | 4.84 | 6.41 | 7.92 | 10.1 | 12.9 | 15.1
x2 = 0.3 | 2.9 | 3.27 | 3.99 | 5.42 | 7.36 | 9.56 | 12.4 | 15.8 | 19
x2 = 0.4 | 2.85 | 3.29 | 4.28 | 5.77 | 7.83 | 10.9 | 14.2 | 18.3 | 22.9
x2 = 0.5 | 2.81 | 3.22 | 4.31 | 5.96 | 8.48 | 11.3 | 14.9 | 19.4 | 23.9
x2 = 0.6 | 3.15 | 3.43 | 4.62 | 6.22 | 8.61 | 11.5 | 15.1 | 19.4 | 23.7
x2 = 0.7 | 3.44 | 3.95 | 5.29 | 7.07 | 9.34 | 12.3 | 16.1 | 20.6 | 25
x2 = 0.8 | 3.84 | 4.16 | 5.55 | 7.29 | 9.54 | 12.4 | 15.9 | 20.2 | 24.7
x2 = 0.9 | 3.83 | 4.34 | 5.57 | 7.26 | 9.51 | 12.2 | 15.5 | 19.6 | 24

Cc1nc(CCl)nc2ccccc12 + CCOC(C)=O + C1CCCCC1
solubility (g/100 g solution)
Conditions | x2 = 0.163 | x2 = 0.321 | x2 = 0.475 | x2 = 0.624 | x2 = 0.768 | x2 = 0.909
281.15 K | 0.0748 | 0.106 | 0.134 | 0.162 | 0.187 | 0.212
286.15 K | 0.102 | 0.139 | 0.176 | 0.21 | 0.244 | 0.276
291.15 K | 0.134 | 0.18 | 0.225 | 0.27 | 0.312 | 0.352
296.15 K | 0.172 | 0.229 | 0.285 | 0.339 | 0.392 | 0.439
301.15 K | 0.22 | 0.29 | 0.357 | 0.42 | 0.481 | 0.539
306.15 K | 0.276 | 0.357 | 0.437 | 0.511 | 0.582 | 0.65
311.15 K | 0.342 | 0.435 | 0.526 | 0.61 | 0.692 | 0.772
316.15 K | 0.418 | 0.523 | 0.623 | 0.718 | 0.81 | 0.898
321.15 K | 0.504 | 0.619 | 0.727 | 0.833 | 0.934 | 1.03
326.15 K | 0.599 | 0.721 | 0.84 | 0.951 | 1.06 | 1.16
331.15 K | 0.704 | 0.833 | 0.955 | 1.07 | 1.19 | 1.3

CCC(C(C)O)n1ncn(-c2ccc(N3CCN(c4ccc(OCC5COC(Cn6cncn6)(c6ccc(F)cc6F)C5)cc4)CC3)cc2)c1=O (stereo not drawn) + CCOC(C)=O + CC(C)O
solubility (g/100 g solution)
Conditions | 273.15 K | 278.15 K | 283.15 K | 288.15 K | 293.15 K | 298.15 K | 303.15 K | 308.15 K | 313.15 K
x2 = 0.07045 | 0.00869 | 0.0113 | 0.015 | 0.0192 | 0.0237 | 0.0294 | 0.0352 | 0.0423 | 0.0504
x2 = 0.1457 | 0.0114 | 0.0145 | 0.0186 | 0.023 | 0.0283 | 0.0344 | 0.0415 | 0.049 | 0.058
x2 = 0.2262 | 0.0148 | 0.0192 | 0.0245 | 0.0306 | 0.0374 | 0.0445 | 0.0524 | 0.0621 | 0.0721
x2 = 0.3126 | 0.0191 | 0.0242 | 0.0305 | 0.0373 | 0.0452 | 0.0542 | 0.0641 | 0.0753 | 0.0897
x2 = 0.4055 | 0.0249 | 0.0308 | 0.039 | 0.0482 | 0.0589 | 0.071 | 0.0837 | 0.0987 | 0.119
x2 = 0.5057 | 0.0321 | 0.0401 | 0.0493 | 0.0608 | 0.0728 | 0.0857 | 0.103 | 0.121 | 0.145
x2 = 0.6141 | 0.0354 | 0.0469 | 0.0581 | 0.0726 | 0.0862 | 0.101 | 0.118 | 0.14 | 0.164
x2 = 0.7318 | 0.0383 | 0.0499 | 0.0636 | 0.0793 | 0.0965 | 0.115 | 0.135 | 0.16 | 0.186
x2 = 0.8599 | 0.0405 | 0.0522 | 0.066 | 0.0819 | 0.101 | 0.12 | 0.142 | 0.166 | 0.193

From the CheMixHub drug solubility set
